Values of other authors as cited in patent US20180207149A1, “METHODS AND COMPOSITIONS FOR ENHANCING IMMUNE RESPONSE TO VACCINATION” (priority 2015, published 2018).

Tested on: immunizing influenza vaccine strains
Settings: elderly subjects with chronic illness; topical, before intradermal trivalent influenza vaccine

For CC(C)Cn1cnc2c(N)nc3ccccc3c21 [imiquimod], the “immunogenicity against the immunizing influenza vaccine strains” value is given as “expedited, augmented and prolonged the immunogenicity”.
